Measurements as given in article PMC5924804, “Various Bee Pheromones Binding Affinity, Exclusive Chemosensillar Localization, and Key Amino Acid Sites Reveal the Distinctive Characteristics of Odorant-Binding Protein 11 in the Eastern Honey Bee, Apis cerana” (Frontiers in Physiology, 2018).
Residue numbers refer to the chain shown, from its start. Read-outs that look alike come from different tables or passages of the source. Each block holds one compound with its values, some of them ahead of it.

How the values were obtained:
recombinant AcerOBP11 = recombinant AcerOBP11 (Apis cerana, UniProt S5CRW7); experiment: biochemical; format: binding
recombinant AcerOBP11, sequence (S5CRW7 entry or part of it): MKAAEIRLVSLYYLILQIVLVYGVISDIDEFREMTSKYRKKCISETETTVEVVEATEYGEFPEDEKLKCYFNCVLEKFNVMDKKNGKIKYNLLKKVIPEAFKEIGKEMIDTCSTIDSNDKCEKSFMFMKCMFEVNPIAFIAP
Procedure: (§1) The interactions were monitored by recording 1-NPN fluorescence upon addition of 1-NPN aliquots with excitation wavelength of 337 nm, and emission wavelength of 350–450 nm, where the slit was 5 nm. Titrations were carried out at 25°C with 1 μmol/L recombinant protein in PBS buffer. The fluorescence intensities at the maximum of emission wavelength (400~410 nm) were recorded to calculate Scatchard plots. The dissociation constant of the protein/1-NPN complex (K1−NPN) was calculated from Scatchard plots and applied in the equation below to estimate ligand binding affinity. All 23 ligands (1 mM) used in competition experiments were dissolved in spectrally pure grade methanol. Three independent measurements were taken for binding data.

[1] = biological target: T1, AcerOBP11m-Ile140 (Ile140Gly mutant) (Apis cerana, UniProt S5CRW7, I140G); experiment: Fluorescence competitive binding assay with 1-NPN, mutant AcerOBP11m-Ile140
T1 sequence (S5CRW7 1-142 I140G): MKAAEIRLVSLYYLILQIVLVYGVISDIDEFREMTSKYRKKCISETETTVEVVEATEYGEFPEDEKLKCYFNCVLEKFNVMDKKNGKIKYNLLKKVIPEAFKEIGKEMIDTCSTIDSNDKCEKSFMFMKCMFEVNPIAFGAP
Procedure: as §1, with “Fluorescence experiments on AcerOBP11 with N-phenyl-1-naphthylamine (1-NPN) were carried out on a Shimadzu RF-5301 spectrofluorimeter using a quartz cuvette in a right-angle configuration. The interactions” for “The interactions”
(§2) In order to verify whether the predicted interaction sites played a role in the binding of AcerOBP11 protein with ligands, site-directed mutagenesis of the corresponding amino acid was carried out. The mutant primers were designed by a partial overlap method before synthesis. The plasmids of pET-32a/AcerOBP11 wild-type were mutated by using fast mutagenesis system kit (Transgen, CN) and then transformed into BL21 (DE3) competent cells. The mutant plasmids of target sites were confirmed by sequencing, and then the mutant proteins were obtained by the induction and purification in the same method as AcerOBP11 wild-type above. The secondary structure of purified AcerOBP11 recombinant protein mutants was also analyzed using circular dichroism (CD) spectrometry (815 type, Jasco, JP). The mutant proteins were used for competitive fluorescence experiments with the six candidate ligands chosen from the previous section. The target amino acids and binding mode of AcerOBP11 binding with candidate ligands were acquired by comparing the dissociation constant KD between wild-type and mutant AcerOBP11. Statistical analysis data (mean ± SE) of KD values for the same mutated amino acid site were also used as one-way analysis of variance (ANOVA) followed by a mean LSD test.

[2] = biological target: T2, AcerOBP11m-Phe101 (Phe101Gly mutant) (Apis cerana, UniProt S5CRW7, F101G); experiment: Fluorescence competitive binding assay with 1-NPN, mutant AcerOBP11m-Phe101; conditions: for change of KD compared with AcerOBP11-wt: AcerOBP11m-Phe101 vs wild-type
T2 sequence (S5CRW7 1-142 F101G): T1 sequence (S5CRW7 1-142 I140G) with F101G, G140I
Procedure: as §1, with “Fluorescence experiments on AcerOBP11 with N-phenyl-1-naphthylamine (1-NPN) were carried out on a Shimadzu RF-5301 spectrofluorimeter using a quartz cuvette in a right-angle configuration. The interactions” for “The interactions”
as §2

[3] = biological target: T3, AcerOBP11m-Ile97 (Ile97Gly mutant) (Apis cerana, UniProt S5CRW7, I97G); experiment: Fluorescence competitive binding assay with 1-NPN, mutant AcerOBP11m-Ile97
T3 sequence (S5CRW7 1-142 I97G): T1 sequence (S5CRW7 1-142 I140G) with I97G, G140I
Procedure: as §1, with “Fluorescence experiments on AcerOBP11 with N-phenyl-1-naphthylamine (1-NPN) were carried out on a Shimadzu RF-5301 spectrofluorimeter using a quartz cuvette in a right-angle configuration. The interactions” for “The interactions”
as §2

ASP1 = biological target: ASP1; set-up: method as in Weng et al., 2013; conditions: ref Weng et al., 2013; cited from earlier work
ASP2 = biological target: ASP2; set-up: method as in Li et al., 2013; conditions: ref Li et al., 2013; cited from earlier work
[4] = KD, calculated from IC50, KD = [IC50]/(1+[1-NPN]/K1-NPN), Table 1
[5] = [IC50], AcerOBP11-wt, Table S4, mean ± SE
[6] = [IC50], displacement of 1-NPN, 1 μmol/L protein in PBS, 25°C, Table 1
[7] = AcerOBP11m-Ile140, Table S4, mean ± SE, read-out: KD
[8] = AcerOBP11m-Ile140, Table S4, mean ± SE, read-out: [IC50]
[9] = AcerOBP11m-Phe101, Table S4, mean ± SE, read-out: KD
[10] = AcerOBP11m-Phe101, Table S4, mean ± SE, read-out: [IC50]
[11] = AcerOBP11m-Ile97, Table S4, mean ± SE, read-out: KD
[12] = AcerOBP11m-Ile97, Table S4, mean ± SE, read-out: [IC50]
[13] = calculated from IC50, KD = [IC50]/(1+[1-NPN]/K1-NPN), Table 1, read-out: KD
[14] = displacement of 1-NPN, 1 μmol/L protein in PBS, 25°C, Table 1, read-out: [IC50]
[15] = KD, AcerOBP11-wt, Table S4, mean ± SE

SMILES: C=CC(C)(O)CCC=C(C)C (stereo not drawn) [Linalool]
- IC50 (recombinant AcerOBP11): 55 µM
- Kd (recombinant AcerOBP11): 9.53 µM

SMILES: C=CCc1ccc(OC)c(OC)c1 [4-Allylveratrole]
- Kd (recombinant AcerOBP11; [4]): 2.67 µM
- IC50 (recombinant AcerOBP11; [5]): 21 ± 0.22 µM
- IC50 (recombinant AcerOBP11; [6]): 16.8 µM
- Kd [1, 7]: 4.28 ± 0.279 µM
- IC50 [1, 8]: 22.5 ± 1.46 µM
- Kd [2, 9]: 4.84 ± 0.092 µM
- IC50 [2, 10]: 20.1 ± 0.381 µM
- change of KD compared with AcerOBP11-wt [2]: did not observe significant increases
- Kd [3, 11]: 5.83 ± 0.06 µM
- IC50 [3, 12]: 25.823 ± 0.022 µM
- change of KD compared with AcerOBP11-wt ([3]; AcerOBP11m-Ile97 vs wild-type): significantly increased

- Kd (recombinant AcerOBP11; [13]): 4.76 µM
- IC50 (recombinant AcerOBP11; [14]): 36.7 µM
SMILES: Cc1ccc(C=O)cc1C [3,4-Dimethylbenzaldehyde]

SMILES: COC(=O)c1ccc(O)cc1 [HOB, methyl p-hydroxybenzoate]
- Kd (recombinant AcerOBP11; KD): < 10 µM
- Kd (recombinant AcerOBP11; [4]): 1.35 µM
- IC50 (recombinant AcerOBP11; [5]): 8.31 ± 0.156 µM
- IC50 (recombinant AcerOBP11; [6]): 8.33 µM
- IC50 [1]: 5.57 ± 0.114 µM
- Kd [1]: 1.91 ± 0.039 µM
- IC50 [2]: 6.257 ± 0.025 µM
- Kd [2]: 1.447 ± 0.006 µM
- change of KD compared with AcerOBP11-wt [2]: did not observe significant increases
- IC50 [3]: 6.09 ± 0.156 µM
- Kd [3]: 1.48 ± 0.045 µM

- Kd (recombinant AcerOBP11; [13]): 4.32 µM
- IC50 (recombinant AcerOBP11; [14]): 31.1 µM
SMILES: CCCCCC(C)=O [2-Heptanone]

- Kd (recombinant AcerOBP11; [4]): 6.13 µM
- IC50 (recombinant AcerOBP11; [6]): 33.9 µM
SMILES: CC(C)=CCC/C(C)=C\CO [Nerol]

SMILES: CC(=O)OCCC(C)C [Isoamyl acetate]
- Kd (recombinant AcerOBP11; [4]): 3.3 µM
- IC50 (recombinant AcerOBP11; [5]): 16.88 ± 0.144 µM
- IC50 (recombinant AcerOBP11; [6]): 24 µM
- Kd [1, 7]: 3.99 ± 0.221 µM
- IC50 [1, 8]: 12.9 ± 0.697 µM
- increase of KD compared with AcerOBP11-wt ([1]; AcerOBP11m-Ile140 vs wild-type, p < 0.01): 1.8 fold
- Kd [2, 9]: 2.61 ± 0.063 µM
- IC50 [2, 10]: 10.7 ± 0.26 µM
- change of KD compared with AcerOBP11-wt [2]: did not observe significant increases
- Kd [3, 11]: 4.544 ± 0.022 µM
- IC50 [3, 12]: 17.75 ± 0.144 µM
- change of KD compared with AcerOBP11-wt ([3]; AcerOBP11m-Ile97 vs wild-type): significantly increased

SMILES: O=CCc1ccccc1 [Phenylacetaldehyde]
- IC50 (recombinant AcerOBP11): 21.6 µM
- Kd (recombinant AcerOBP11): 3.75 µM

SMILES: COC(=O)c1ccccc1O [Methyl salicylate]
- IC50 (recombinant AcerOBP11): 40 µM
- Kd (recombinant AcerOBP11): 6.83 µM

- Kd (recombinant AcerOBP11; [4]): 3.79 µM
- IC50 (recombinant AcerOBP11; [6]): 21.1 µM
SMILES: CC(=O)/C=C/C1=C(C)CCCC1(C)C [β- Ionone]
- Kd (ASP1): 14.7 µM
- Kd (ASP2): 5.14 µM

SMILES: CC(C)=CCC/C(C)=C/CC/C(C)=C/CO [Farnesol]
- Kd (recombinant AcerOBP11; [4]): 4.71 µM
- IC50 (recombinant AcerOBP11; [5]): 20.6 ± 0.237 µM
- IC50 (recombinant AcerOBP11; [6]): 32.2 µM
- Kd [1, 7]: 4.93 ± 0.133 µM
- IC50 [1, 8]: 19.9 ± 0.536 µM
- Kd [2, 9]: 3.14 ± 0.072 µM
- IC50 [2, 10]: 17.8 ± 0.411 µM
- Kd [3, 11]: 5.24 ± 0.069 µM
- IC50 [3, 12]: 21.3 ± 0.237 µM
- change of KD compared with AcerOBP11-wt ([3]; AcerOBP11m-Ile97 vs wild-type): significantly increased

SMILES: CCCCCCCCCCCCCCCC(=O)OCC [Ethyl palmitate]
- Kd (recombinant AcerOBP11; [15]): 3.788 ± 0.012 µM
- Kd (recombinant AcerOBP11; [4]): 3.82 µM
- IC50 (recombinant AcerOBP11; [5]): 24.39 ± 0.076 µM
- IC50 (recombinant AcerOBP11; [6]): 19.4 µM
- Kd [1, 7]: 5.34 ± 0.167 µM
- IC50 [1, 8]: 16.6 ± 0.52 µM
- Kd [2, 9]: 3.89 ± 0.143 µM
- IC50 [2, 10]: 20.3 ± 0.747 µM
- change of KD compared with AcerOBP11-wt [2]: did not observe significant increases
- Kd [3, 11]: 1.86 ± 0.022 µM
- IC50 [3, 12]: 6.61 ± 0.076 µM

- Kd (recombinant AcerOBP11; [13]): 4.38 µM
- IC50 (recombinant AcerOBP11; [14]): 21 µM
SMILES: CCCCCCCCCCCCCCCC(=O)OC [Methyl palmitate]

- Kd (recombinant AcerOBP11; [13]): 10.7 µM
- IC50 (recombinant AcerOBP11; [14]): 45.7 µM
SMILES: C=CC(=C)CCC=C(C)C [Myrcene]

SMILES: CC1CCC(C(C)C)C(O)C1 (racemic) [DL-Menthol]
- IC50 (recombinant AcerOBP11): 26.2 µM
- Kd (recombinant AcerOBP11): 4.34 µM

SMILES: CCCCCCCCCCCCCC(=O)O [Myristic acid]
- IC50 (recombinant AcerOBP11): 45.2 µM
- Kd (recombinant AcerOBP11): 7.71 µM

SMILES: CCCCCCCC/C=C\CCCCCCCC(=O)OC [Methyl oleate]
- relative fluorescence of 1-NPN (recombinant AcerOBP11; ligand 1-11 μmol/L): ≥ 50%

- Kd (recombinant AcerOBP11; [4]): 8.58 µM
- IC50 (recombinant AcerOBP11; [6]): 39.9 µM
SMILES: CC(C)=CCC/C(C)=C/CO [Geraniol]

- Kd (recombinant AcerOBP11; [13]): 9.79 µM
SMILES: CC1=CCC2C(C1)C2(C)C (stereo not drawn) [3-Carene]

SMILES: CC12CCC(CC1)C(C)(C)O2 [1,8-Cineole]
- IC50 (recombinant AcerOBP11): 21.1 µM
- Kd (recombinant AcerOBP11; [13]): 4.3 µM

SMILES: CCCCCCO [n-hexanol]
- Kd (recombinant AcerOBP11; [15]): 2.79 ± 0.104 µM
- Kd (recombinant AcerOBP11; [4]): 2.79 µM
- IC50 (recombinant AcerOBP11; [5]): 21.1 ± 0.785 µM
- Kd [1, 7]: 3.19 ± 0.076 µM
- IC50 [1, 8]: 11.8 ± 0.283 µM
- Kd [2, 9]: 2.321 ± 0.02 µM
- IC50 [2, 10]: 14.26 ± 0.124 µM
- Kd [3, 11]: 10.1 ± 0.456 µM
- IC50 [3, 12]: 33.4 ± 0.785 µM
- change of KD compared with AcerOBP11-wt ([3]; AcerOBP11m-Ile97 vs wild-type): significantly increased
- increase of KD compared with AcerOBP11-wt ([3]; AcerOBP11m-Ile97 vs wild-type, p < 0.01): 3.60 fold

- Kd (recombinant AcerOBP11; [13]): 6.67 µM
- IC50 (recombinant AcerOBP11; [14]): 36.9 µM
- Kd (recombinant AcerOBP11; read-out: KD): < 10 µM
SMILES: CC(=O)CCCCC/C=C/C(=O)O [9-ODA, (E)-9-oxo-2-decanoic acid]
